Data taken from article PMC10077338, “Galangin delivered by retinoic acid-modified nanoparticles targeted hepatic stellate cells for the treatment of hepatic fibrosis” (RSC Advances, 2023).

Columns and labels:
[1] = Pharmacokinetics after oral administration; type: in vivo, Sprague–Dawley rats
Procedure: All animal procedures were approved by the Animal Care and Use Committee of the Renmin Hospital of Wuhan University (Laboratory Animal Welfare and Ethics Committee [Institutional Animal Care and Use Committee] Issue No.: WDRM NO.20200501). […] Free GA, GA-NPs, and RA-GA-NPs were orally administered (GA concentration: 50 mg kg^−1). Subsequently, 200 μL of blood were collected at predetermined time points (i.e., 0.5, 1, 2, 4, 6, 8, 10, 12, and 24 h). The concentrations of GA in plasma were determined by HPLC. Plasma samples (200 μL) were extracted using 200 μL of acetonitrile, vortexed for 10 min, and centrifuged at 5000 rpm for 5 min. Thereafter, the supernatant was collected and filtered using a 0.45 μm nylon 66 membrane. Finally, each sample (20 μL) was injected into the HPLC system.

HF model induced by CCl4 = assay: Anti-HF effect in vivo; set-up: species or system C57BL/6 mice; details: 20 mg kg^−1 oral daily for 4 weeks, CCl4 mice
Procedure: Forty 6 weeks-old male C57BL/6 mice (weight: 20 ± 2 g; […]) were randomly divided into five groups (n = 8 per group): control; tetrachloromethane (CCl4)-treated; free GA; GA-NPs; and RA-GA-NPs. The HF model was induced by intraperitoneal injection with 10% CCl4 (diluted in olive oil, 5 mL per kg body weight) thrice per week for 4 consecutive weeks.[33–35] The control mice received an intraperitoneal injection with an equal volume of olive oil. The mice in all treatment groups received an injection with CCl4 for 4 weeks, as well as free GA, GA-NPs, or RA-GA-NPs (20 mg kg^−1) through oral administration once daily for 4 weeks; the dose of GA was based on previous reports.[36,37] All mice were sacrificed 12 h after the last administration, and blood specimens were collected through retro-orbital bleeding. Serum was subsequently separated by centrifugation at 3500 rpm for 15 min at 4 °C and stored at −20 °C. […] is typically used to discriminate collagen fibers from tissues on histological slides. […] The levels of ALT, AST, and Hyp were determined using detection kits, respectively, according to the instructions provided by the manufacturer. In addition, the serum levels of markers, HA, LN, PC III, and Col IV were determined using ELISA kits based on the respective protocols.

aHSC = system: aHSC; set-up: method as in PMID 32893252; details: cited from earlier work
[2] = both sexes, Sprague-Dawley, rat, plasma, GA 50 mg kg^−1, n = 6

## O=c1c(O)c(-c2ccccc2)oc2cc(O)cc(O)c12 [Free GA, 3,5,7-trihydroxyflavone]
[1]; GA 50 mg kg^−1, n = 6
  AUC: 2580 ± 470 ng·h/mL
  CL: 3.99 ± 0.73 (mg kg^−1)/h(μg mL^−1)
  V d: 20.98 ± 4.22 L/kg
[1]; GA 50 mg kg^−1, sampling up to 24 h
  time for which serum drug concentrations were detected / maintained: up to 12 h
[1]; [2]
  MRT: 5.25 ± 0.16 h
  half-life: 3.64 ± 0.11 h
HF model induced by CCl4
  effect on the biomarkers of HF (HA, LN, PC III, Col IV): modest anti-fibrotic effect
aHSC
  concentration at which inhibition of aHSC in vitro was initiated: 6 µg/mL
